Like-named read-outs stand apart in the source and are kept apart here.
Experiment: Log P by HPLC on reversed phase columns, method [a] (EEC directive 79/831 Annex V.A8)
Assay type: physicochemical
Details: for chromatographic logP: reversed phase HPLC column
Protocol: Measurement of Log P values as provided herein was performed according to EEC directive 79/831 Annex V.A8 by HPLC (High Performance Liquid Chromatography) on reversed phase columns with the following methods: • ^[a] Log P value is determined by measurement of LC-UV, in an acidic range, with 0.1% formic acid in water and acetonitrile as eluent (linear gradient from 10% acetonitrile to 95% acetonitrile). • ^[b] Log P value is determined by measurement of LC-UV, in a neutral range, with 0.001 molar ammonium acetate solution in water and acetonitrile as eluent (linear gradient from 10% acetonitrile to 95% acetonitrile). • ^[c] Log P value is determined by measurement of LC-UV, in an acidic range, with 0.1% phosphoric acid and acetonitrile as eluent (linear gradient from 10% acetonitrile to 95% acetonitrile). If more than one Log P value is available within the same method, all the values are given and separated by “+”. Calibration was done with straight-chain alkan2-ones (with 3 to 16 carbon atoms) with known Log P values (measurement of Log P values using retention times with linear interpolation between successive alkanones). Lambda-max-values were determined using UV-spectra from 200 nm to 400 nm and the peak values of the chromatographic signals In table 1, the log P values were determined according to method [^a]. In table 2, the log P values were determined according to method [^a].

[1] = method [a], HPLC on reversed phase columns, read-out: logP
[2] = log P determined according to method [a] (HPLC on reversed phase columns)
[3] = log P determined according to method [a] (HPLC on reversed phase columns), read-out: logP
[4] = Method A: LC-UV, acidic range, 0.1% formic acid in water and acetonitrile, read-out: Log P

SMILES | chromatographic logP [1] | logP [2] | further results
CC(Nc1ncc(-c2nnc(C(F)F)o2)cn1)c1cccc(OC(F)(F)F)c1 (racemic) [I.257, 5-[5-(difluoromethyl)-1,3,4-oxadiazol-2-yl]-N-{(1RS)-1-[3-(trifluoromethoxy)phenyl]ethyl}pyrimidin-2-amine] | 3.53 | – | –
CC(Nc1ncc(-c2nnc(C(F)F)o2)cn1)c1cccs1 (racemic) [I.192, 5-[5-(difluoromethyl)-1,3,4-oxadiazol-2-yl]-N-[(1RS)-1-(2-thienyl)ethyl]pyrimidin-2-amine] | 2.7 | – | –
O=C(Nc1ccc(F)cc1F)c1ccc(-c2nnc(C(F)(F)F)o2)cc1 [Example I-028] | – | 3.12 | –
FC(F)c1nnc(-c2cnc(NCC3CC3)nc2)o1 [Example I-067] | – | 2.16 | –
CC(Nc1ncc(-c2nnc(C(F)F)o2)cn1)c1ccccc1F (racemic) [I.124, 5-[5-(difluoromethyl)-1,3,4-oxadiazol-2-yl]-N-[(1RS)-1-(2-fluorophenyl)ethyl]pyrimidin-2-amine] | – | – | chromatographic logP [3]: 2.89
FC(F)c1nnc(-c2cnc(N3CCOCC3)nc2)o1 [Example I-074] | – | 1.87 | –
FC(F)c1nnc(-c2cnc(NC3(c4ccccc4)CC3)nc2)o1 [I.195, 5-[5-(difluoromethyl)-1,3,4-oxadiazol-2-yl]-N-(1-phenylcyclopropyl)pyrimidin-2-amine] | 2.62 | – | –
FC(F)c1nnc(-c2cnc(NC3(c4ccccc4Br)CCCCC3)nc2)o1 [I.268, N-[1-(2-bromophenyl)cyclohexyl]-5-[5-(difluoromethyl)-1,3,4-oxadiazol-2-yl]pyrimidin-2-amine] | 4.38 | – | –
COC(=O)c1ccc(-c2nnc(C(F)F)o2)cc1 [Example I-003] | – | 2.35 | –
Fc1ccccc1C1(Nc2ccc(-c3nnc(C(F)(F)Cl)o3)cn2)CC1 [Example I-057] | – | 3.81 | –
FC(F)c1nnc(-c2cnc(-c3ccsc3)nc2)o1 [Example I-072] | – | 2.64 | –
COC(=O)c1ccc(-c2nnc(C(F)(F)F)s2)cc1 [I.011, methyl 4-[5-(trifluoromethyl)-1,3,4-thiadiazol-2-yl]benzoate] | – | – | chromatographic logP [4]: 3.23
Fc1ccc(-c2ncc(-c3nnc(C(F)F)o3)cn2)cc1 [Example I-077] | – | 3.70 | –
CN(C)c1ncc(-c2nnc(C(F)F)o2)cn1 [Example I-062] | – | 1.87 | –
NNC(=O)c1cnc(NC2(c3ccccc3)CCC2)nc1 [2-[(1-phenylcyclobutyl)amino]pyrimidine-5-carbohydrazide] | – | – | chromatographic logP [4]: 1.63
COc1ccc(C2(Nc3ncc(-c4nnc(C(F)F)o4)cn3)CC2)cc1OC [I.243, 5-[5-(difluoromethyl)-1,3,4-oxadiazol-2-yl]-N-[1-(3,4-dimethoxyphenyl)cyclopropyl]pyrimidin-2-amine] | 2.39 | – | –
COC(=O)c1ccc(-c2nnc(C(F)(F)F)o2)cc1 [Example I-006] | – | 2.97 | –
CC(C)(Nc1ncc(-c2nnc(C(F)F)o2)cn1)c1cccnc1 [I.199, 5-[5-(difluoromethyl)-1,3,4-oxadiazol-2-yl]-N-[2-(pyridin-3-yl)propan-2-yl]pyrimidin-2-amine] | 0.91 | – | –
COCCNC(=O)c1ccc(-c2nnc(C(F)F)o2)cc1 [Example I-016] | – | 1.58 | –
FC(F)c1nnc(-c2cnc(NC3(c4ccc(Cl)c(Cl)c4)CC3)nc2)o1 [I.252, N-[1-(3,4-dichlorophenyl)cyclopropyl]-5-[5-(difluoromethyl)-1,3,4-oxadiazol-2-yl]pyrimidin-2-amine] | 3.43 | – | –
N#Cc1ccc(-c2ncc(-c3nnc(C(F)F)o3)cn2)cc1 [Example I-085] | – | 2.72 | –
CC(Nc1ncc(-c2nnc(C(F)F)o2)cn1)c1cccnc1 (racemic) [I.188, 5-[5-(difluoromethyl)-1,3,4-oxadiazol-2-yl]-N-[(1RS)-1-(pyridin-3-yl)ethyl]pyrimidin-2-amine] | 0.74 | – | –
Fc1cccc(Nc2ncc(-c3nnc(C(F)F)o3)cn2)c1 [Example I-094] | – | 2.77 | –
Fc1ccccc1C1(N(CC(F)F)c2ncc(-c3nnc(C(F)F)o3)cn2)CC1 [I.261, N-(2,2-difluoroethyl)-5-[5-(difluoromethyl)-1,3,4-oxadiazol-2-yl]-N-[1-(2-fluorophenyl)cyclopropyl]pyrimidin-2-amine] | 4.4 | – | –
CC1(Nc2ncc(-c3nnc(C(F)F)o3)cn2)CC1 [Example I-066] | – | 1.90 | –

SMILES | chromatographic logP [1] | logP [2] | further results
Fc1ccc([C@H](Nc2ncc(-c3nnc(C(F)F)o3)cn2)C2CCCC2)cc1 [I.244, N—[(R)-cyclopentyl(4-fluorophenyl)methyl]-5-[5-(difluoromethyl)-1,3,4-oxadiazol-2-yl]pyrimidin-2-amine] | 4.05 | – | –
COCCNC(=O)c1ccc(-c2nnc(C(F)(F)F)o2)cc1 [Example I-020] | – | 2.04 | –
CC(C)(Nc1ncc(-c2nnc(C(F)F)o2)cn1)c1cccc(C(F)(F)F)c1 [I.256, 5-[5-(difluoromethyl)-1,3,4-oxadiazol-2-yl]-N-{2-[3-(trifluoromethyl)phenyl]propan-2-yl}pyrimidin-2-amine] | 3.63 | – | –
FC(F)c1nnc(-c2cnc(NC3(Cc4ccccc4)CC3)nc2)o1 [I.201, N-(1-benzylcyclopropyl)-5-[5-(difluoromethyl)-1,3,4-oxadiazol-2-yl]pyrimidin-2-amine] | 2.99 | – | –
Fc1ccc([C@H]2C[C@H]2Nc2ncc(-c3nnc(C(F)F)o3)cn2)cc1 (racemic) [I.206, 5-[5-(difluoromethyl)-1,3,4-oxadiazol-2-yl]-N-[rac-(1R,2R)-2-(4-fluorophenyl)cyclopropyl]pyrimidin-2-amine] | 2.97 | – | –
O=C(Nc1ccc(F)cc1F)c1ccc(-c2nnc(C(F)(F)F)s2)cc1 [Example I-029] | – | 3.29 | –
CC(C)(C)c1ccc(C2(Nc3ncc(-c4nnc(C(F)F)o4)cn3)CC2)cc1 [I.242, N-[1-(4-tert-butylphenyl)cyclopropyl]-5-[5-(difluoromethyl)-1,3,4-oxadiazol-2-yl]pyrimidin-2-amine] | 4.05 | – | –
FC(F)c1nnc(-c2cnc(-c3ccccc3)nc2)o1 [Example I-069] | – | 2.98 | –
FC(F)c1nnc(-c2cnc(OC3(c4ccccc4)COC3)nc2)o1 [I.142, 5-[5-(difluoromethyl)-1,3,4-oxadiazol-2-yl]-2-[(3-phenyloxetan-3-yl)oxy]pyrimidine] | – | – | chromatographic logP [3]: 2.51
FC(F)c1nnc(-c2cnc(NC3(c4cccc(Oc5ccccc5)c4)CC3)nc2)o1 [I.265, 5-[5-(difluoromethyl)-1,3,4-oxadiazol-2-yl]-N-[1-(3-phenoxyphenyl)cyclopropyl]pyrimidin-2-amine] | 3.62 | – | –
O=C(O)c1ccc(-c2nnc(C(F)(F)F)s2)cc1 [Example I-008] | – | 2.41 | –
FC(F)c1nnc(-c2cnc(Nc3ccccc3)nc2)o1 [Example I-076] | – | 2.54 | –
CCc1noc(-c2ccc(C(=O)NNC(=O)OC(C)(C)C)cc2)n1 [tert-butyl 2-[4-(3-ethyl-1,2,4-oxadiazol-5-yl)benzoyl]hydrazinecarboxylate] | – | – | chromatographic logP [4]: 1.23
CC(Nc1ncc(-c2nnc(C(F)F)o2)cn1)c1ccc2ccccc2n1 (racemic) [I.233, 5-[5-(difluoromethyl)-1,3,4-oxadiazol-2-yl]-N-[(1RS)-1-(quinolin-2-yl)ethyl]pyrimidin-2-amine] | 2.04 | – | –
FC(F)c1nnc(-c2cnc(NC3(c4cccnc4)CCCC3)nc2)o1 [I.218, 5-[5-(difluoromethyl)-1,3,4-oxadiazol-2-yl]-N-[1-(pyridin-3-yl)cyclopentyl]pyrimidin-2-amine] | 1.29 | – | –
FC(F)c1nnc(-c2ccc(C(F)(F)F)nc2)o1 [Example I-037] | – | 2.39 | –
FC(F)c1nnc(-c2cnc(NC3(c4cc(Cl)cc(Cl)c4)CC3)nc2)o1 [I.254, N-[1-(3,5-dichlorophenyl)cyclopropyl]-5-[5-(difluoromethyl)-1,3,4-oxadiazol-2-yl]pyrimidin-2-amine] | 3.63 | – | –
FC(F)c1nnc(-c2cnc(-c3ccc(Cl)cc3)nc2)o1 [I.101, 2-(4-chlorophenyl)-5-[5-(difluoromethyl)-1,3,4-oxadiazol-2-yl]pyrimidine] | – | – | chromatographic logP [3]: 3.6
FC(F)c1nnc(-c2ccc(-c3ccccc3)cc2)o1 [Example I-007] | – | 3.57 | –
CCc1noc(-c2ccc(-c3nnc(C(F)F)o3)cc2)n1 [Example I-015] | – | 2.94 | –
Cc1cccc(C2(Nc3ncc(-c4nnc(C(F)F)o4)cn3)CC2)c1 [I.202, 5-[5-(difluoromethyl)-1,3,4-oxadiazol-2-yl]-N-[1-(3-methylphenyl)cyclopropyl]pyrimidin-2-amine] | 2.95 | – | –
FC(F)c1nnc(-c2cnc(NC3(c4cc(Cl)ccc4Cl)CC3)nc2)o1 [I.251, N-[1-(2,5-dichlorophenyl)cyclopropyl]-5-[5-(difluoromethyl)-1,3,4-oxadiazol-2-yl]pyrimidin-2-amine] | 3.84 | – | –
O=C(Nc1ccc(-c2nnc(C(F)F)o2)cn1)c1ccc(F)cc1F [Example I-055] | – | 2.77 | –
FC(F)c1nnc(-c2ccc(-n3ccnn3)cc2)o1 [Example I-005] | – | 1.73 | –
